Results taken from PMC9204756 (2022).
Each block holds one molecule with its values, some of them ahead of it.

Columns and labels:
[1] = test system: FMN RT RNA (FMN riboswitch in structure cassette) (RNA, riboswitch) GGGCCUUCGGGCCAAUGUAUCCUUCGGGGCAGGGUGGAAAUCCCGACCGGCGGUAGUAAAGCACAUUUGCUUUAGAGCCCGUGACCCGUGUGCAUAAGCACGCGGUGGAUUCAGUUUAAGCUGAAGCCGACAGUGAAAGUCUGGAUGGGAGAAGGAUGAUCGAUCCGGUUCGCCGGAUCCAAAUCGGGCUUCGGUCCGGUUC; assay: SHAPE (NAI); conditions: 15 mM MgCl2, 100 mM KCl; 50 mM HEPES pH 8.0, 37 °C; 100 μM compound
[2] = test system: FMN riboswitch aptamer (FMN RNA) (RNA, riboswitch) GGGUGUAUCCUUCGGGGCAGGGUGGAAAUCCCGACCGGCGGUAGUAAAGCACAUUUGCUUUAGAGCCCGUGACCCGUGUGCAUAAGCACGCGGUGGAUUCAGUUUAAGCUGAAGCCGACAGUGAAAGUCUGGAUGGGAGAAGGAUGA; assay: photoaffinity labeling, Cy5 click fluorescence and PAGE; conditions: covalent; 10 μM probe; competed out by 10 μM FMN
[3] = test system: FMN RT RNA (FMN riboswitch in structure cassette) (RNA, riboswitch) GGGCCUUCGGGCCAAUGUAUCCUUCGGGGCAGGGUGGAAAUCCCGACCGGCGGUAGUAAAGCACAUUUGCUUUAGAGCCCGUGACCCGUGUGCAUAAGCACGCGGUGGAUUCAGUUUAAGCUGAAGCCGACAGUGAAAGUCUGGAUGGGAGAAGGAUGAUCGAUCCGGUUCGCCGGAUCCAAAUCGGGCUUCGGUCCGGUUC; assay: reverse transcription termination after photo-cross-linking; conditions: covalent; folding buffer, 37 °C; 10 μM probe, 2 μM RNA; stops competed by FMN
[4] = test system: FMN riboswitch aptamer (FMN RNA) (RNA, riboswitch) GGGUGUAUCCUUCGGGGCAGGGUGGAAAUCCCGACCGGCGGUAGUAAAGCACAUUUGCUUUAGAGCCCGUGACCCGUGUGCAUAAGCACGCGGUGGAUUCAGUUUAAGCUGAAGCCGACAGUGAAAGUCUGGAUGGGAGAAGGAUGA; assay: photoaffinity labeling, Cy5 click fluorescence; conditions: covalent, 10 μM probe
[5] = test system: FMN riboswitch aptamer (FMN RNA) (RNA, riboswitch) GGGUGUAUCCUUCGGGGCAGGGUGGAAAUCCCGACCGGCGGUAGUAAAGCACAUUUGCUUUAGAGCCCGUGACCCGUGUGCAUAAGCACGCGGUGGAUUCAGUUUAAGCUGAAGCCGACAGUGAAAGUCUGGAUGGGAGAAGGAUGA; assay: competitive photoaffinity labeling, PAGE; conditions: displaces probe 1 (10 μM), UV cross-linked, fluorescein-azide click
[6] = test system: FMN riboswitch aptamer (FMN RNA) (RNA, riboswitch) GGGUGUAUCCUUCGGGGCAGGGUGGAAAUCCCGACCGGCGGUAGUAAAGCACAUUUGCUUUAGAGCCCGUGACCCGUGUGCAUAAGCACGCGGUGGAUUCAGUUUAAGCUGAAGCCGACAGUGAAAGUCUGGAUGGGAGAAGGAUGA; assay: competitive photoaffinity labeling, microplate reader fluorescence; conditions: displaces probe 1

binding [1]: yes
binding [2]: yes
binding [3]: yes
SMILES: C#CC[C@@H](C(=O)NCCC1(C)N=N1)N(CCCC(=O)O)CCn1c2nc(=O)[nH]c(=O)c-2nc2cc(C)c(C)cc21

binding ([4]; low click efficiency not excluded): weak
SMILES: C#CC[C@@H](C(=O)NCCc1ccc(C(=O)c2ccccc2)cc1)N(CCCC(=O)O)CCn1c2nc(=O)[nH]c(=O)c-2nc2cc(C)c(C)cc21

binding [4]: yes
SMILES: C#CC[C@@H](C(=O)NCCc1ccc(N=[N+]=[N-])cc1)N(CCCC(=O)O)CCn1c2nc(=O)[nH]c(=O)c-2nc2cc(C)c(C)cc21

apparent IC50 [5]: 7000 ± 180 nM
SMILES: Cc1cc2nc3c(=O)[nH]c(=O)nc-3n(C[C@H](O)[C@H](O)[C@H](O)CO)c2cc1N(C)C

binding [1]: yes
apparent IC50 [5]: 400 ± 10 nM
apparent IC50 [6]: 400 ± 10 nM
SMILES: Cc1cc2nc3c(=O)[nH]c(=O)nc-3n(C[C@H](O)[C@H](O)[C@H](O)COP(=O)(O)O)c2cc1C
